# According to publication PMC7244523, “A Cell-based Screen in Actinomyces oris to Identify Sortase Inhibitors” (Scientific Reports, 2020):
# Tested on: A. oris ΔlcpA
# Assay: Cell fractionation and immunoblot with α-GspA (cell wall anchoring of GspA)
# Format: cell-based, Actinomyces oris
# Conditions: 10 µM, ΔlcpA strain; for GspA polymers (immunoblot α-GspA): 3 hours; for GspA display / cell wall associated GspA: Fig. 4B
# Experimental: To examine if these molecules inhibit cell wall anchoring of surface proteins (e.g. GspA), we similarly treated cells devoid of lcpA, i.e. ΔlcpA, another suppressor of srtA[46]. […] To corroborate these observations, we subjected A. oris cells of ΔgspA and Δlcp strains to 10 μM of each molecule (3, 4 and 6) and studied pilus display with transmission electron microscopy (TEM), whereby A. oris cells were immobilized on nickel grids and stained with 1% uranyl acetate prior to viewing by an electron microscope.
# Cell fractionation and Western blotting were followed according to a published protocol. Briefly, the cultures of A. oris strains grown in BHI at 37 °C until OD600 of 0.25 were aliquoted, and bacterial aliquots were treated with 10 µM of individual sortase inhibitors for 3 hours. Bacterial cultures were then normalized to equal OD600, and cells were fractionated into culture medium (S), cell wall (W), and protoplast fractions. Isolated fractions were subjected to protein precipitation by 7.5% trichloroacetic acid, followed by washing with cold acetone, except for the protoplast fractions. Protein samples were dissolved in hot sodium dodecyl sulfate (SDS)-containing sample buffer, separated by 3–12% Tris-glycine gradient gels, and subjected to immunoblotting with specific antisera (α-FimA, 1:10,000 dilution; α-GspA, α-MdbA, α-SrtC2 and α-SrtA, 1:4000 dilution), followed by chemo-luminescence detection.
SMILES,GspA polymers (immunoblot α-GspA),GspA display / cell wall associated GspA
Cc1nc(COc2ccc(F)cc2)sc1CC(=O)Nc1nc2c(s1)CC(C)CC2 (stereo not drawn) [Compound 6],no GspA polymers were observed,significantly diminishes GspA display
CCc1ccc2nc(N(Cc3cccnc3)C(=O)c3ccc([N+](=O)[O-])o3)sc2c1 [Compound 3],no GspA polymers were observed,decreased amounts of cell wall associated GspA
COc1ccc2nc(N(Cc3ccccc3)C(=O)c3ccc([N+](=O)[O-])o3)sc2c1 [Compound 4],no GspA polymers were observed,decreased amounts of cell wall associated GspA
